From patent US8470874B2, “Pharmaceutical compositions comprising cannabichromene type compounds” (GW Pharma Limited, priority 2003, dated 2013)
Where two headings read alike, the source gives them in different places.

Experiments:
C57BL6BYJ mice = test: tail suspension test; type: in vivo; conditions: male mice
Experimental: The experiment used 112 C57BL6BYJ mice (Jackson Laboratories, Bar Harbor, Me.) which were housed in same sex groups (n=3-5) and maintained on a reversed 12 h light-dark cycle, with all testing being completed during the first 4 h of the dark phase cycle. Food and water were provided ad libitum except during behavioural testing. The subjects were six weeks old at the time of testing and consisted of groups with equal numbers of males (18-26 g) and females (15-21 g).
The substantially pure CBC extract (54.0 mg/ml in ethanol) was diluted in Tween 80 and subsequently diluted further to the correct dose with PBS (pH 7.4). The final concentration of Tween 80 was 5% for all preparations.
Imipramine (30 mg/kg) was used as an antidepressant control and diluted as per the CBC extract. Test article at doses of 0, 5, 10, 20, 40, 80 mg/kg/0.01 ml/g bodyweight were administered i.p. under sodium light to minimise exposure to light.
For the tail suspension test, a sound-attenuated chamber (Lafayette Instruments, Lafayette, Ind.) with a titanium bar (1 cm diameter×24 cn long) mounted 15 cm from the floor of the test chamber was used. An opto-electronic sensor was mounted in a 4 cm×4 cm white plastic column and positioned 5 cm from the mounting bar. An infra-red light transmitted from the light emitting diode onto the animal. If the animal moved, the amount of light collected by the phototransistor would increase or decrease depending on the size and duration of the movement. The opto-electric sensor was connected to an interface designed to condition and amplify the signal (range 0-10 volts) and then send the amplified signal to an A/D interface board (Powerlab 4/s: AD Instruments, Mountain View, Calif.) connected to a Macintosh G4 microcomputer. The duration of the experiment and the recording of raw behavioural responses was controlled and saved to a data file using Chart 3.6 data collection software (AD Instruments, Mountain View, Calif.).
On the day of testing, the mice were weighed and randomly assigned to groups with the restriction that equal numbers of males and females be represented in each group. Test article or control drug was injected intraperitoneally. Thirty minutes later each mouse was tested on the tail-suspension test for six minutes.
The mouse was suspended from a bar by the tail using adhesive tape so that the tip of their nose was 2 cm from the floor of the tail suspension chamber. The photodiode was then placed 5 cm away from the subject and aimed at the middle of the subject's ventral surface. Each subject was tested for six minutes. The total number of movements and total amount of time spent immobile were recorded. […] A period of immobility was counted only if no movements above 350 mV were recorded for at least 1000 ms. The total amount of time spent immobile was calculated by summing the duration of the individual immobility periods. These criteria were selected to be similar to those used in previous tail suspension studies (e.g., Steru et al., 1985).
Antidepressant effects are indicated by an increase in the frequency of struggling activity during the test. In addition the degree or amplitude of struggling is thought to be a predictor of antidepressant activity.
The results shown in FIGS. 2 to 7 are from the male mice only as the data obtained from the female mice were confounded by the oestrous cycle.

mice = conditions: cited from earlier work
rat paw edema = conditions: in vivo, equivalent doses; cited from earlier work
erythrocyte membrane = conditions: in vitro, equivalent doses; cited from earlier work
prostaglandin synthesis = conditions: in vitro; cited from earlier work
dogs = conditions: cited from earlier work
rats [1] = conditions: cited from earlier work
monkeys or humans = conditions: cited from earlier work
rats [2] = conditions: co-administration of CBC with THC; cited from earlier work

CCCCCc1cc(O)c2c(c1)OC(C)(CCC=C(C)C)C=C2 (centres unmarked) [CBC, cannabichromene]
all activity compared with imipramine (C57BL6BYJ mice; CBC 10 mg/kg/0.01 ml/g bodyweight i.p. vs imipramine 30 mg/kg): comparable to those observed in the mice administered imipramine
degree of struggling (percentage very large vigorous movements), mean (C57BL6BYJ mice; CBC 20 mg/kg/0.01 ml/g bodyweight i.p.): 31.4%
degree of struggling (percentage very large vigorous movements), mean (C57BL6BYJ mice; CBC 80 mg/kg/0.01 ml/g bodyweight i.p.): 30.2%
number of large vigorous movements compared with imipramine (C57BL6BYJ mice; CBC 10 and 40 mg/kg/0.01 ml/g bodyweight i.p. vs imipramine 30 mg/kg): comparable number of large vigorous movements
number of large vigorous movements compared with imipramine (C57BL6BYJ mice; CBC 20 or 80 mg/kg/0.01 ml/g bodyweight i.p. vs imipramine 30 mg/kg): greater number of large vigorous movements in the animals than imipramine
most efficient dose for antidepressant action (C57BL6BYJ mice; i.p., from Fisher's PLSD of struggling): 20 mg/kg/0.01 ml/g bodyweight
LD50 (mice; single intraperitoneal dose): 113.4 mg/kg
anti-inflammatory effect compared with phenylbutazone (rat paw edema): as effective as phenylbutazone (PBZ)
anti-inflammatory effect compared with phenylbutazone (erythrocyte membrane): as effective as phenylbutazone (PBZ)
inhibition of prostaglandin synthesis (prostaglandin synthesis): less potently than THC or CBD
sedation (dogs): causes sedation
muscular coordination (rats [1]): decreased muscular coordination
cannabimimetic activity (monkeys or humans): has not been shown to cause any cannabimimetic activity
effect on THC changes in heart rate (rats [2]): potentiates the THC changes in heart rate
effect on THC's hypotensive effects (rats [2]): does not potentiate THC's hypotensive effects

CCCCCc1cc(O)c2c(c1)OC1(C)CCC3C1C2C3(C)C (centres unmarked) [Cannabicyclol]
inhibition of prostaglandin synthesis (prostaglandin synthesis): almost no inhibitory activity

CCCCCc1cc(O)cc(O)c1 [Olivetol]
inhibition of prostaglandin synthesis (prostaglandin synthesis): high activity

CN(C)CCCN1c2ccccc2CCc2ccccc21 [imipramine, reference compound]
activity mean (all activity) (C57BL6BYJ mice; imipramine 30 mg/kg/0.01 ml/g bodyweight i.p., 30 min after dosing, 6 min test): 733.5

CCCCCc1cc(O)c2c(c1)OC(C)(C)[C@@H]1CCC(C)=C[C@@H]21 [Δ9-THC]
LD50 (mice; single intraperitoneal dose): 276.3 mg/kg
LD50 (mice; Δ9-THC with 25 mg/kg CBC given concurrently): 152.0 mg/kg
